From EP0974573A1, “PHENYLPROPENONE COMPOUNDS AND MEDICINES CONTAINING THE SAME” (Kabushiki Kaisha Yakult Honsha, priority 1997, dated 1998)

Columns and labels:
[1] = test system: SD rats; assay: Provisional toxicity test of Compound 6; assay type: in vivo, rat; conditions: female SD rats, oral by stomach tube in 1.5% CMC, 14 days or 28 days, 100, 250 or 250 mg/kg/day
Method: Concerning Compound 6, a provisional toxicity test was conducted.
Using female SD rats (5-weeks old), the test was conducted at a size of 6 rats per group. The animals were subjected to group feeding, and were allowed to take both "F-2 Feed" (product of FUNABASHI FARM CO., LTD.) and tap water ad libitum.
Compound 6 which had been suspended in a 1.5% aqueous solution of CMC was continuously and orally administered by a stomach tube for 14 days or 28 days such that the dosage became 100, 250 or 250 mg/kg/day. To a control group, on the other hand, an aqueous solution of CMC was administered.
Therefore, safety has been confirmed.

[2] = test system: SD rats; assay: Plasma cholesterol elevation inhibitory effects of Compound 6 on rats, oral suspension in carboxymethylcellulose (Test 10); assay type: in vivo, rat; conditions: 7 days; for HDLC: plasma HDL cholesterol; for PL: plasma phospholipid; for TC: plasma total cholesterol; for TG: plasma triglyceride
Description: Using 5-week old male SD rats (120-150 g, 8 rats per group, group feeding), plasma cholesterol elevation inhibitory effects of compound 6 in Examples on rats were studied.
To rats in a control group, only a 1.5% aqueous solution of carboxymethylcellulose was orally administered once a day for 7 days. During the last 3 days, a hyperlipemia inducing diet [a feed prepared by adding 1.5% of cholesterol, 0.5% of cholic acid, 10% of coconut oil and 10% of sugar to "F-2 Diet" (product of FUNABASHI FARM CO., LTD.)] was given ad libitum. To rats in a control group (normal diet), however, a feed (normal diet) similar to the hyperlipemia inducing diet except for the exclusion of cholesterol was given ad libitum.
To test-compound-administered groups, on the other hand, compound 6 suspended in a 1.5% aqueous solution of carboxymethylcellulose was continuously and orally administered at dosages of 5, 10 and 20 mg/kg/day, respectively, once a day for 7 days. During the last 3 days, a hyperlipemia inducing diet [a feed prepared by adding 1.5% of cholesterol, 0.5% of cholic acid, 10% of coconut oil and 10% of sugar to "F-2 Diet" (product of FUNABASHI FARM CO., LTD.)] was given ad libitum.
On the 4th day after the initiation of feeding of the hyperlipemia inducing diet and the normal diet, bloods were drawn from the abdominal aortas of the individual rats under anesthesia with Nembutal. Subsequent to collection of plasma from each blood sample, the plasma cholesterol was quantitated by an "AUTOSERA S-CHO KIT" (product of Daiichi Pure Chemicals Co., Ltd.), the plasma triglyceride was guantitated by an "AUTOSERA TG-N KIT" (product of Daiichi Pure Chemicals Co., Ltd.), and the plasma phospholipid was quantitated by an "AUTOSERA PL KIT" (product of Daiichi Pure Chemicals Co., Ltd.). Further, the HDL cholesterol was quantitated by an "AUTOSERA S-CHO KIT" (product of Daiichi Pure Chemicals Co., Ltd.) after fractionating it by a "DETERMINER HDL KIT" (product of Kyowa Medex Co., Ltd.). The liver lipid level was quantitated by a commercial measuring kit in a similar manner as in the measurement of plasma lipid subsequent to its extraction by the Folch's method. Statistical processing of the data so obtained was conducted by the Dunnet's test.

[3] = test system: rat-derived ACAT; assay: Inhibitory effects on rat-derived ACAT (Test 1); assay type: biochemical; conditions: crude enzyme from microsome protein fractions of rat liver, (14C)-oleoyl-CoA substrate, 37°C
Method: To test effects on ACAT, a reaction was conducted in vitro to form (^14C)-cholesteryl oleate from endogeneous cholesterol in the presence of (^14C)-oleoyl-CoA as a substrate by using a crude enzyme prepared from microzome protein fractions of a rat liver.
The reaction mixture had the following composition: 20 µℓ of microsome protein (1.83 mg/mℓ), 20 µℓ of (^14C)-oleoyl-CoA (5 µCi/mℓ, BSA: 96 nmol/mℓ), 106 µℓ of 100 mM phosphate buffer (containing 5 mM of dithiothreitol, pH 7.4) and a sample dissolved in 4 µℓ of methanol or dimethyl sulfoxide; 150 µℓ in total.
The reaction was conducted at 37°C. After an elapse of a predetermined reaction time (18 minutes in general), a 2:1 mixture of chloroform and methanol (5.65 mℓ) was added to terminate the reaction. A 0.04 N aquous solution of hydrochloric acid (0.98 mℓ) and as a carrier, cholesteryl oleate were added, followed by extraction for 20 minutes on a shaking apparatus. The mixture was then allowed to stand overnight in a cold dark place. On the following day, the separated lower chloroform layer was extracted in its entirety and was dried under a nitrogen gas stream. The remaining upper layer was added with the lower layer (5.65 mℓ) of the Folch's partition solution, and was extracted again. After the mixture was allowed to stand overnight in a dark place, the lower layer was drawn in its entirety. This lower layer was combined with the lower chloroform layer fraction, which had already been dried to solid, and the mixture was then dried to solid.
The solid was then dissolved in chlorofrom (200 µℓ), and the solution was coated in its entirety on a G60 plate (aluminum sheet) for silica gel thin layer chromatography. After the solid was developedover 10 cm with a 10:190 mixture of diethyl ether and petroleum ether, autoradiography was conducted and the formation of (^14C)-colesteryl oleate was confirmed. This section was then cut off. The radioactivity of each sample was measured by subjecting it to liquid scintillation counting for 5 minutes in toluene or was measured for 30 minutes by a "Betascope" (manufactured by BETA-GEN INC. The results so obtained are shown in Table 1. Table 1

[4] = test system: SD rats; assay: Plasma cholesterol elevation inhibitory effects on rats loaded with high cholesterol diet, feed-mixed administration (Test 3); assay type: in vivo, rat; conditions: 0.005% of compound added to hyperlipemia inducing diet, ad libitum 3 days
Description: Using 5-week old male SD rats (120-150 g, 10 rats per group, individual feeding), plasma cholesterol elevation inhibitory effects of various compounds in the Examples on rats were studied. To a control group, a feed which had been prepared by adding 1.5% of cholesterol, 0.5% of cholic acid, 10% of coconut oil and 10% of sugar to "F-2 Diet" (product of FUNABASHI FARM CO., LTD.) was given ad libitum as a hyperlipemia inducing diet.
To each test-compound-administered group, on the other hand, a feed which had been prepared by adding 0.005% of the corresponding compound in the Examples to the hyperlipemia inducing diet of the above-described composition was given ad libitum. Further, a normal diet group to which a feed similar to the hyperlipemia inducing diet except for the exclusion of cholesterol was also tested similarly. As a testing method, after these feeds were given ad libitum for 3 days, bloods were drawn on the 4th day from the abdominal aortas of the individual rats under anesthesia with Nembutal. Subsequent to collection of plasma from each blood sample, the plasma cholesterol was quantitated by a "DETERMINER TC555 KIT" (product of Kyowa Medex Co., Ltd.) while the HDL cholesterol was quantitated by "DETERMINER HDL KIT" (product of Kyowa Medex Co., Ltd.). The liver cholesterol was measured by extracting it in accordance with the Folch's method and then measuring it with a "DETERMINER TC555 KIT". Statistical processing of the data so obtained was conducted by the Danett's test.

[5] = 5 mg/kg oral in carboxymethylcellulose
[6] = 10 mg/kg oral in carboxymethylcellulose
[7] = 20 mg/kg oral in carboxymethylcellulose

CCCCCCCCOc1c(OC)cc(/C=C/C(=O)NN2CCN(c3ccc(C)c(C)c3)CC2)cc1OC [Compound 6, N-[4-(3,4-dimethylphenyl)-1,4-diazacyclohexyl]-(2E)-3-(3,5-dimethoxy-4-octyloxyphenyl)-2-propenamide]
difference between administered groups and control group in external appearance and results of various biochemical tests [1]: no difference was observed | Inhibitory rate (%) of plasma total cholesterol elevation ([2]; 5 mg/kg/day oral in 1.5% carboxymethylcellulose): 34% | Inhibitory rate (%) of plasma total cholesterol elevation ([2]; 10 mg/kg/day oral in 1.5% carboxymethylcellulose): 57% | Inhibitory rate (%) of plasma total cholesterol elevation ([2]; 20 mg/kg/day oral in 1.5% carboxymethylcellulose): 66% | HDLC [2, 5]: 19.3 ± 4.5 mg/dL | HDLC [2, 6]: 20.5 ± 4.0 mg/dL | HDLC [2, 7]: 22.8 ± 2.2 mg/dL | PL [2, 5]: 243.2 ± 42.5 mg/dL | PL [2, 6]: 206.7 ± 50.6 mg/dL | PL [2, 7]: 203.6 ± 21.3 mg/dL | TC [2, 5]: 303.1 ± 99.4 mg/dL | TC [2, 6]: 226.6 ± 94.7 mg/dL | TC [2, 7]: 196.8 ± 44.1 mg/dL | TG [2, 5]: 202.3 ± 99.7 mg/dL | TG [2, 6]: 159.0 ± 68.6 mg/dL | TG [2, 7]: 187.6 ± 79.3 mg/dL | IC50 [3]: 11 nM | Inhibitory rate (%) of plasma total cholesterol elevation in rat [4]: 79%
